{
  "source": "PubChem BioAssay AID1745844",
  "about": "(Carcinogenic Potency Database (CPDB), 2022)",
  "test_system": "rodent lifetime carcinogenesis bioassay, tumor incidence TD50",
  "assay": "carcinogenic potency in animals, long-term in vivo studies, CPDB compilation (AID 1745844)",
  "note": "Activity calls are given as the source filed them. The rule behind the calls is not given here.",
  "data": [
    {"smiles": "CN(C)N=O", "values": [
      {"measurement": "TD50", "setting": "mouse, strain A, males, in drinking water, site: lung, lesion: alveolar-cell adenoma, dosed 72 weeks, study length 72 weeks", "result": 0.177, "unit": "mg/kg/day"},
      {"measurement": "TD50", "setting": "mouse, strain BALB/c, females, in drinking water, site: any site (literature study), lesion: several types, types named in the paper, dosed 85 weeks, study length 85 weeks", "result": 0.396, "unit": "mg/kg/day"},
      {"measurement": "TD50", "setting": "mouse, strain BALB/c, females, in drinking water, site: lung, lesion: adenoma, dosed 85 weeks, study length 85 weeks", "result": 0.324, "unit": "mg/kg/day"},
      {"measurement": "TD50", "setting": "mouse, strain C57BL, females, by gavage, site: any site (literature study), lesion: several types, types named in the paper, dosed 50 weeks, study length 72 weeks", "result": 0.0964, "unit": "mg/kg/day"},
      {"measurement": "TD50", "setting": "mouse, strain C57BL, females, by gavage, site: forebrain, lesion: olfactory neuroepithelioma, dosed 50 weeks, study length 72 weeks", "result": 0.153, "unit": "mg/kg/day"},
      {"measurement": "TD50", "setting": "mouse, strain C57BL, females, by gavage, site: liver, lesion: benign tumor, dosed 50 weeks, study length 72 weeks", "result": 0.35, "unit": "mg/kg/day"},
      {"measurement": "TD50", "setting": "mouse, strain C57BL, females, by gavage, site: liver, lesion: malignant tumor, dosed 50 weeks, study length 72 weeks", "result": 0.429, "unit": "mg/kg/day"},
      {"measurement": "TD50", "setting": "mouse, strain C57BL, males, by gavage, site: any site (literature study), lesion: several types, types named in the paper, dosed 50 weeks, study length 72 weeks", "result": 0.06, "unit": "mg/kg/day"},
      {"measurement": "TD50", "setting": "mouse, strain C57BL, males, by gavage, site: forebrain, lesion: olfactory neuroepithelioma, dosed 50 weeks, study length 72 weeks", "result": 0.161, "unit": "mg/kg/day"},
      {"measurement": "TD50", "setting": "mouse, strain C57BL, males, by gavage, site: liver, lesion: benign tumor, dosed 50 weeks, study length 72 weeks", "result": 0.508, "unit": "mg/kg/day"},
      {"measurement": "TD50", "setting": "mouse, strain C57BL, males, by gavage, site: liver, lesion: malignant tumor, dosed 50 weeks, study length 72 weeks", "result": 0.179, "unit": "mg/kg/day"},
      {"measurement": "TD50", "setting": "mouse, strain C57BL, males, by gavage, site: lung, lesion: adenoma, dosed 50 weeks, study length 72 weeks", "result": 21.1, "unit": "mg/kg/day"},
      {"measurement": "TD50", "setting": "rat, strain Buffalo, males, in feed, site: liver, lesion: hepatocellular carcinoma, dosed 26 weeks, study length 52 weeks", "result": 1.76, "unit": "mg/kg/day"},
      {"measurement": "TD50", "setting": "rat, strain Colworth (Wistar derived), females, in drinking water, site: liver, lesion: hepatocellular carcinoma, dosed 176 weeks, study length 176 weeks", "result": 0.237, "unit": "mg/kg/day"},
      {"measurement": "TD50", "setting": "rat, strain Colworth (Wistar derived), females, in drinking water, site: liver, lesion: hepatocellular tumor, dosed 176 weeks, study length 176 weeks", "result": 0.145, "unit": "mg/kg/day"},
      {"measurement": "TD50", "setting": "rat, strain Colworth (Wistar derived), females, in drinking water, site: liver, lesion: intrahepatic bile duct tumor, benign, dosed 176 weeks, study length 176 weeks", "result": 0.0763, "unit": "mg/kg/day"},
      {"measurement": "TD50", "setting": "rat, strain Colworth (Wistar derived), females, in drinking water, site: liver, lesion: intrahepatic bile duct tumor, dosed 176 weeks, study length 176 weeks", "result": 0.0752, "unit": "mg/kg/day"},
      {"measurement": "TD50", "setting": "rat, strain Colworth (Wistar derived), females, in drinking water, site: liver, lesion: mesenchymal hemangio-sarcoma, -pericytoma, or -endothelioma, malignant, dosed 176 weeks, study length 176 weeks", "result": 0.914, "unit": "mg/kg/day"},
      {"measurement": "TD50", "setting": "rat, strain Colworth (Wistar derived), females, in drinking water, site: liver, lesion: neoplasm of liver cell, bile duct, mesenchyme, Kupffer cell, or unknown, dosed 176 weeks, study length 176 weeks", "result": 0.0424, "unit": "mg/kg/day"},
      {"measurement": "TD50", "setting": "rat, strain Colworth (Wistar derived), males, in drinking water, site: liver, lesion: hepatocellular carcinoma, dosed 176 weeks, study length 176 weeks", "result": 0.218, "unit": "mg/kg/day"},
      {"measurement": "TD50", "setting": "rat, strain Colworth (Wistar derived), males, in drinking water, site: liver, lesion: hepatocellular tumor, dosed 176 weeks, study length 176 weeks", "result": 0.157, "unit": "mg/kg/day"},
      {"measurement": "TD50", "setting": "rat, strain Colworth (Wistar derived), males, in drinking water, site: liver, lesion: intrahepatic bile duct tumor, benign, dosed 176 weeks, study length 176 weeks", "result": 0.313, "unit": "mg/kg/day"},
      {"measurement": "TD50", "setting": "rat, strain Colworth (Wistar derived), males, in drinking water, site: liver, lesion: intrahepatic bile duct tumor, malignant, dosed 176 weeks, study length 176 weeks", "result": 23.6, "unit": "mg/kg/day"},
      {"measurement": "TD50", "setting": "rat, strain Colworth (Wistar derived), males, in drinking water, site: liver, lesion: intrahepatic bile duct tumor, dosed 176 weeks, study length 176 weeks", "result": 0.308, "unit": "mg/kg/day"},
      {"measurement": "TD50", "setting": "rat, strain Colworth (Wistar derived), males, in drinking water, site: liver, lesion: mesenchymal hemangio-sarcoma, -pericytoma, or -endothelioma, malignant, dosed 176 weeks, study length 176 weeks", "result": 0.712, "unit": "mg/kg/day"},
      {"measurement": "TD50", "setting": "rat, strain Colworth (Wistar derived), males, in drinking water, site: liver, lesion: neoplasm of liver cell, bile duct, mesenchyme, Kupffer cell, or unknown, dosed 176 weeks, study length 176 weeks", "result": 0.0867, "unit": "mg/kg/day"},
      {"measurement": "TD50", "setting": "rat, strain Colworth (Wistar derived), males, in drinking water, site: lung, lesion: several types, types named in the paper, dosed 176 weeks, study length 176 weeks", "result": 1.64, "unit": "mg/kg/day"},
      {"measurement": "TD50", "setting": "rat, strain Fischer 344, females, in drinking water, site: liver, lesion: hemangiosarcoma, dosed 30 weeks, study length 110 weeks", "result": 0.438, "unit": "mg/kg/day"},
      {"measurement": "TD50", "setting": "rat, strain Fischer 344, females, in drinking water, site: liver, lesion: hepatocellular carcinoma, dosed 30 weeks, study length 110 weeks", "result": 0.135, "unit": "mg/kg/day"},
      {"measurement": "TD50", "setting": "rat, strain Fischer 344, females, in drinking water, site: liver, lesion: several types, types named in the paper, dosed 30 weeks, study length 110 weeks", "result": 0.0587, "unit": "mg/kg/day"},
      {"measurement": "TD50", "setting": "rat, strain Fischer 344, males, by gavage, site: kidney, lesion: mesenchymal neoplasm, dosed 30 weeks, study length 65 weeks", "result": 0.189, "unit": "mg/kg/day"},
      {"measurement": "TD50", "setting": "rat, strain Fischer 344, males, by gavage, site: liver, lesion: cholangiocellular tumor, benign, dosed 30 weeks, study length 65 weeks", "result": 0.822, "unit": "mg/kg/day"},
      {"measurement": "TD50", "setting": "rat, strain Fischer 344, males, by gavage, site: liver, lesion: hemangiosarcoma, dosed 30 weeks, study length 65 weeks", "result": 0.822, "unit": "mg/kg/day"},
      {"measurement": "TD50", "setting": "rat, strain Fischer 344, males, by gavage, site: liver, lesion: hepatocellular tumor, benign, dosed 30 weeks, study length 65 weeks", "result": 0.372, "unit": "mg/kg/day"},
      {"measurement": "TD50", "setting": "rat, strain Fischer 344, males, by gavage, site: liver, lesion: several types, types named in the paper, dosed 30 weeks, study length 65 weeks", "result": 0.189, "unit": "mg/kg/day"},
      {"measurement": "TD50", "setting": "rat, strain Fischer 344, males, by gavage, site: lung, lesion: alveolar/bronchiolar adenoma, dosed 30 weeks, study length 65 weeks", "result": 0.106, "unit": "mg/kg/day"},
      {"measurement": "TD50", "setting": "rat, strain Fischer 344, males, by gavage, site: lung, lesion: several types, types named in the paper, dosed 30 weeks, study length 65 weeks", "result": 0.0765, "unit": "mg/kg/day"},
      {"measurement": "TD50", "setting": "rat, strain Fischer 344, males, by gavage, site: lung, lesion: squamous-cell carcinoma, dosed 30 weeks, study length 65 weeks", "result": 0.372, "unit": "mg/kg/day"},
      {"measurement": "TD50", "setting": "rat, strain MRC Porton (Wistar derived), females, in feed, site: liver, lesion: one or several types, types not named, dosed 52 weeks, study length 120 weeks", "result": 0.443, "unit": "mg/kg/day"},
      {"measurement": "TD50", "setting": "rat, strain MRC Porton (Wistar derived), females, in feed, site: liver, lesion: one or several types, types not named, dosed 108 weeks, study length 120 weeks", "result": 1.4, "unit": "mg/kg/day"},
      {"measurement": "TD50", "setting": "rat, strain MRC Porton (Wistar derived), males, in feed, site: liver, lesion: one or several types, types not named, dosed 120 weeks, study length 120 weeks", "result": 1.18, "unit": "mg/kg/day"},
      {"measurement": "TD50", "setting": "rat, strain Wistar, females, in feed, site: all sites, lesion: leukemia, dosed 96 weeks, study length 96 weeks", "result": 1.46, "unit": "mg/kg/day"},
      {"measurement": "TD50", "setting": "rat, strain Wistar, females, in feed, site: liver, lesion: hemangioendothelioma, dosed 96 weeks, study length 96 weeks", "result": 1.83, "unit": "mg/kg/day"},
      {"measurement": "TD50", "setting": "rat, strain Wistar, females, in feed, site: liver, lesion: hepatocellular carcinoma, dosed 96 weeks, study length 96 weeks", "result": 4.1, "unit": "mg/kg/day"},
      {"measurement": "TD50", "setting": "rat, strain Wistar, females, in feed, site: liver, lesion: nodular hyperplasia, dosed 96 weeks, study length 96 weeks", "result": 0.113, "unit": "mg/kg/day"},
      {"measurement": "carcinogen call", "setting": "rat, strain Wistar, males, in feed, site: liver, lesion: carcinoma, dosed 54 weeks, study length 69 weeks", "result": "negative (inactive)"},
      {"measurement": "TD50", "setting": "rat, strain Wistar, males, in feed, site: liver, lesion: hemangioendothelioma, dosed 96 weeks, study length 96 weeks", "result": 1.95, "unit": "mg/kg/day"},
      {"measurement": "TD50", "setting": "rat, strain Wistar, males, in feed, site: liver, lesion: hepatocellular carcinoma, dosed 96 weeks, study length 96 weeks", "result": 5.52, "unit": "mg/kg/day"},
      {"measurement": "TD50", "setting": "rat, strain Wistar, males, in feed, site: liver, lesion: nodular hyperplasia, dosed 96 weeks, study length 96 weeks", "result": 0.782, "unit": "mg/kg/day"},
      {"measurement": "TD50", "setting": "rat, strain Wistar, males, in feed, site: testis, lesion: Leydig-cell tumor, dosed 54 weeks, study length 69 weeks", "result": 0.136, "unit": "mg/kg/day"}
    ]}
  ]
}
